The subject of data set [1] is platelet clots (mesenterial vein). The data set is described as follows: Effect on platelet clots in rats (electrically induced mesenterial clots, Poliwoda et al.). It counts as in vivo, rat. The method, then: Effect on platelet clots in the rats
Essentially the method described by Poliwoda, Lilli, Hagemann, Schyma, in Z. ges. exp. Med. 145, 252, (1968) was used.
Male SPF rats (Chbb:THOM) weighing from 70 to 90 g, given free access to food (Altromin®), and water up until the start of the test, were anaesthetised with Nembutal administered by intraperitoneal route (50 to 60 mg/kg of pentobarbital-Na). In order to avoid hypothermia they were kept on a heated test bench (37° C.).
After the abdomen had been opened up with a transverse cut the loop of small intestine was taken out and fixed and a mesenterial vein with a diameter of 300 microns was placed under a binocular operation microscope with ×40 magnification. A monopolar V4A steel electrode embedded in glass, with a diameter of 100 microns at the tip, was applied to the vein as stimulating cathode. The anode was applied to the same vessel opposite the cathode. Stimulation was effected with 150 volts of direct current for a period of 100 microsec. After stimulation, the observation area was continuously rinsed with warm (37° C.) physiological saline solution.
The formation and growth of the clot was monitored under the microscope over a period of 20 minutes. Throughout the entire observation period, the percentage narrowing of the diameter of the vessel by the clot was determined and noted initially at 10 second intervals and later every minute. The results were recorded in terms of time in a coordinate system. […]
The area under the curve of the animals treated with the test substance was compared with that of the control animals. The reduction of the size of the clot under the influence of the substance was determined as the percentage reduction in the average value of the area under the curve of the substance-treated animals over the entire observation period compared with the average value of the controls.
The significance of the reduction was calculated by Student's t test for independent random samples (CAVALLI-SFORZA: Biometrie, G. Fischer-Verlag, Stuttgart 1969, page 72).

Data set [2] deals with muscarinic receptors (cortex). Nature of the data set: Binding to muscarinic receptors, cerebral cortex (3H-NMS displacement). To be noted: rat cerebral cortex homogenate, pH 7.4, 30° C., 45 minutes, read-out: Receptor binding test IC50, Cortex. The procedure:
(§1) B. Studies of binding to muscarinic receptors: determining the IC50 value
(§2) Male Sprague-Dawley rats weighing from 180-220 g served as organ donors. After the heart, stomach and cerebral cortex had been removed, all other procedures were carried out in ice-cold Hepes-HCl buffer (pH 7.4; 100 m molar NaCl, 10 m molar MgCl2). The whole heart was cut up with scissors. All the organs were then homogenised in a Potter apparatus.
(§3) For the binding test the homogenised organs were diluted as follows:
(§4) The homogenised organs were incubated at a specific concentration of the radioactive ligand and a series of concentrations of the non-radioactive test substances in an Eppendorf centrifugal test tube at 30° C. The period of incubation was 45 minutes. 0.3 micro-mol of ^3 H-N-methylscopolamine (^3 H-NMS) was used as the radioactive ligand. After incubation had been ended by centrifuging at 14000 g, the radioactivity in the pellet was determined. It represents the sum of specific and non-specific binding of ^3 H-NMS. The proportion of non-specific binding was defined as the radioactivity which was bound in the presence of 1 micro-mol of quinuclidinyl benzylate. Fourfold measurements were taken in each case. The IC50 values of the non-labelled test substances were determined graphically. […]

The test system of the next data set is pupil size. Nature of the data set: Mydriatic effect on the rat (increase in pupil size). To be noted: i.v.; printed as ED50 in Table I; method defines ED200 (dose doubling pupil diameter). The format is in vivo. The method, then:
3. Mydriatic activity in the rat.
3. Mydriatic effect on the rat
The mydriasis was determined by measuring the increase in pupil size after intravenous injection of the test substance. The pupil size was measured with a microscope. The measurements were taken before and at various times (15, 45 and 75 minutes) after the injection of different doses of the substance. The results were expressed as the ED200. That is the dose which doubled the diameter of the pupil, compared with the basal value. The maximum effect was usually observed between 15 and 45 minutes after intravenous administration.

Data set [3] has as its system heart rate, conscious dog. Nature of the data set: Heart rate-increasing activity (tachycardia) in the conscious dog. It counts as in vivo. As to conditions: Canis lupus familiaris, iv, dose for increase of 50 beats/minute, 3 to 5 dogs, read-out: Tachycardia (dog) ED50. The method, then: 1. tachycardiac effect in conscious dogs,
1. Heart rate-increasing activity in the conscious dog
The substances were injected intravenously and the heart rate was recorded using a tachygraph. After a control interval, increasing doses of the compound were administered in order to increase the heart rate. The next dose was injected when the effect of the preceding dose was no longer visible. The dosage of a substance which brought about an increase of 50 beats/minute (ED50) was determined graphically. Each substance was tested on 3 to 5 dogs.

Data set [4] relates to oxotremorin-induced saliva secretion. The data set is described as follows: Inhibition of oxotremorin-stimulated salivation in the rat. It counts as in vivo. To be noted: iv, 15 minutes before oxotremorin 0.083 mg/kg i.v. The method, then:
2. inhibition of salivation stimulated by oxotremorin in the rat and
2. Inhibition of salivation in the rat
10 female albino rats (strain Crl:COBS-CD (SD) BR) having a body weight from 120 to 150 g, were used for each treatment group, and 24 hours before the start of the test the rats were deprived of food but given free access to drinking water.
In order to determine the muscarinic effect of oxotremorin on each of the symptoms being investigated in preliminary tests, a dosage-activity curve was drawn up with at least 3 dosages for each symptom.
When testing antimuscarinic substances, the oxotremorin dose used was that which had triggered the symptom to be influenced in 90 to 100% of the animals in the preliminary test 5.
Secretion of saliva: 0.083 mg/kg i.v.
Each antimuscarinic substance was administered intraveneously in uniformly graduated dosages 15 minutes before the administration of oxotremorin. Control groups were given the solvent and suspension agent in corresponding amounts instead of the test substance.
The results were expressed as the percentage inhibition of the oxotremorin effect (percentage of animals without the symptom in question). ED50 values were determined by the method of LITCHFIELD and WILCOXON (J. Pharmacol. Exp. Ther. 96, 99, 1949).

In data set [5] the target is T1, muscarinic receptors (heart) (Rattus norvegicus, UniProt P10980).
T1 construct: The whole heart was cut up with scissors; All the organs were then homogenised; from tissue; host or cells: rat whole heart homogenate (male Sprague-Dawley)
T1 sequence (P10980 1-466): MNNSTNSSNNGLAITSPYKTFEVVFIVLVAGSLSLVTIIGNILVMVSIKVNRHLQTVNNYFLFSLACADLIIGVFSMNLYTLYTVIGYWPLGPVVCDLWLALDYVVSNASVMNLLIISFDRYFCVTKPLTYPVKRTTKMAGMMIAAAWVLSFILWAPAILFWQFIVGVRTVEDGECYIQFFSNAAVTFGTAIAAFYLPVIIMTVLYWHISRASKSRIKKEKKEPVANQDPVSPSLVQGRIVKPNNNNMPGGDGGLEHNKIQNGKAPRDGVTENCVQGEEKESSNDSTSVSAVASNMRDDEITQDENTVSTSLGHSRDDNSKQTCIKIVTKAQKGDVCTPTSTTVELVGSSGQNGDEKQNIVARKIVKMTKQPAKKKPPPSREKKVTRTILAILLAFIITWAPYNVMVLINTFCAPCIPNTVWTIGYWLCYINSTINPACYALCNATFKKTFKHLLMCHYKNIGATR
The data set is described as follows: Binding to muscarinic receptors, heart (3H-NMS displacement). As to conditions: rat whole heart homogenate, pH 7.4, 30° C., 45 minutes, read-out: Receptor binding test IC50, Heart. The method, then:
as §1, §2, §3, §4

Consider `CC(CC#CCN1CCN(C)CC1)C(=O)N1c2ccccc2C(=O)Nc2cccnc21.Cl.Cl` (stereo not shown) [Substance C in form of dihydrochloride, 5,11-Dihydro-11-[1-oxo-2-methyl-6-(4-methyl-1-piperazinyl)-4-hexynyl]-6H-pyrido[2,3-b][1,4]benzodiazepin-6-one dihydrochloride], for which the “"area under curve" units of area, average ± SD” value in data set [1] (1 mg/kg i.v., n = 5, 20 minutes, significant reduction, t test, p < 0.02, control 1736.0 ± 124.2) is given as 1230.0 ± 188.0 units of area. Also, in data set [1] (1 mg/kg i.v., n = 5, from area under curve versus controls, p < 0.02), the “percentage reduction compared with controls (size of clot)” value is reported as 29.2%. Moreover, the “antithrombotic activity (in words)” value in data set [1] (rats) is reported as “marked antithrombotic activity”.
Take `O=C1Nc2cccnc2N(C(=O)CCC#CCN2CCCCCC2)c2ccccc21` [Substance B, 5,11-dihydro-11-[1-oxo-6-(hexahydro-1H-azepin-1-yl)-4-hexynyl]-6H-pyrido[2,3-b][1,4]benzodiazepin-6-one]: the IC50 (commonly the point on the concentration scale where inhibition reaches its midpoint) amounted to 220 nM in data set [2] and 30 nM in data set [5]. Also, the “Mydriasis (rat) ED200 (dose doubling pupil diameter)” value in the data set with pupil size turned out to be 2189 micro g/kg. Moreover, the ED (50 beats/min increase) in data set [3] came to 0.028 mg/kg. Moreover, in data set [4], the 50% effective dose (ED50) (usually the dose that gives a 50% effect, or the effect in half of the subjects) was found to be 1.14 mg/kg.
`O=C1Nc2cccnc2N(C(=O)CCC#CCN2CCCCC2)c2ccccc21` [Substance A, 5,11-dihydro-11-[1-oxo-6-(1-piperidinyl)-4-hexynyl]-6H-pyrido[2,3-b][1,4]benzodiazepin-6-one]: the IC50 in data set [2] is 1200 nM; in data set [5], 120 nM. Also, the “Mydriasis (rat) ED200 (dose doubling pupil diameter)” value with pupil size is ~ 3000 micro g/kg. The ED (50 beats/min increase) in data set [3] is 0.044 mg/kg. Also, the 50% effect level in data set [4] (ED50) was put at a dose of 2.05 mg/kg.

The values are drawn from patent publication US4724236A, “5,11-dihydro-6H-pyrido(2,3-B)(1,4)benzodiazepin-6-ones substituted in the 11-position, processes for preparing them and pharmaceutical compositions containing these compounds” (Karl Thomae GmbH, priority 1985, dated 1988).
